Test results published in article PMC7613620, “Reaction hijacking of tyrosine tRNA synthetase as a whole-of-life-cycle antimalarial strategy” (Science (New York, N.Y.), 2022).
Read-outs that look alike come from different tables or passages of the source.

How the values were obtained:
PfYRS knockdown line = test: Growth inhibition of aptamer-regulatable PfYRS knockdown line (luciferase, 72 h); assay type: cell-based, Plasmodium falciparum; details: for IC50: Plasmodium falciparum, read-out: IC50 against the PfYRS knockdown line (control compounds); for Fold change in IC50 (high aTc/ no aTc), PfYRS knockdown line (control compounds): high aTc 500 nM
Text: 674 Generation and analysis of PfYRS knock-down transfectants
675 A conditional regulatable line for the cytosolic PfYRS (PF3D7_0807900) was generated by integrating the
676 gene regulatable system, TetR-DOZI-RNA aptamer module at the 3'-end of the target gene, in P. falciparum
677 parasites using CRISPR-Cas9 and homology-driven repair (55, 56). A line harbourbing an aptamer-
678 regulatable fluorescent protein (eYFP) integrated in the cg6 locus is used as the control (55). Transfection
679 into parasites was carried out by preloading RBCs with the donor vector as described previously (57).
680 Briefly, 50 μg of purified plasmid DNA was mixed with human RBCs and subjected to 8 square wave
681 electroporation pulses of 365 V for 1 ms each, separated by 0.1 s in a 0.2 cm cuvette. The plasmid DNA
682 preloaded cells were inoculated with NF54 expressing Cas9 and T7 RNA polymerase. […]
696 Stock solutions of ML901, DHA or borrelidin (Cayman Chemicals) were dispensed into 96-well U-bottom
697 BD Falcon™ plates and serially diluted in complete medium to yield final concentrations ranging from 20-
698 0.08 nM. Synchronous ring-stage YRScyt conditional knockdown line and the aptamer-regulatable control
699 line in varying aTc concentrations (high = 50 or 500 nM, low = 1 nM, and no aTc) were distributed into
700 the drug plate. Lowest drug treatment and a lethal dose of chloroquine (200 nM) served as reference
701 controls. Growth inhibition was analysed after 72 h using the Renilla-Glo(R) Luciferase Assay System (ref
702 no E2750 Promega) and the GloMax® Discover Multimode Microplate Reader (Promega), and IC50 values
703 were obtained from corrected dose-response curves using GraphPad Prism (version 8; GraphPad Software). […]
706 CRISPR/Cas9 was used to generate parasites encoding the S234C mutation in exon 2 of PfYRS, as shown
707 in Suppl Figure 6. Two guide RNAs (gRNA1: […] and gRNA2:
708 […]) were selected using Benchling (benchling.com), and cloned into the
709 pDC2-coCas9-gRNA plasmid essentially as described previously (58). A donor template of 645 bp,
710 encompassing the majority of the 708 bp exon 2, was synthesized (ThermoFisher) and cloned into the
711 AatII/EcoRI sites of both the pDC2-coCas9-gRNA1 and pDC2-coCas9-gRNA2 plasmids. In addition to
712 the TCC>TGC (S234C) mutation, additional silent shield mutations were introduced to prevent gRNA-
713 Cas9 complex binding, as shown in Suppl Figure 6. Ring-stage P. falciparum parasites (Dd2 strain) at 10%
714 parasitemia (150 µL of packed cells) were transfected with 50 µg of plasmid DNA using a BioRad Gene
715 Pulser II (310 V, 950 µF), and selected with 5 nM WR99210 (Jacobus Pharmaceuticals) for 8 days, after
716 which culture was continued without drug pressure until transfectants were obtained. Clones of the
717 PfYRSS234C mutant parasites were isolated by limiting dilution and verified by Sanger sequencing.
719 Protein translation assay
720 P. falciparum Cam 3.II_Rev (25) schizont- (43-48 h p.i.) infected RBCs were pre-incubated with inhibitor
Using a modification of a published procedure (14), the
722 cells were labelled with O-propargyl-puromycin (OPP; 4 µM) for 1 h, washed 3x (PBS +3% serum) and
723 then fixed for 10 minutes (4% formaldehyde/0.02% glutaraldehyde in PBS). The click reaction was
724 performed for 1 h in the presence of CuSO4 (0.1 mM), THPTA (0.5 mM) and sodium ascorbate (5 mM) to
725 bring about azide-alkyne cycloaddition to Alexa Fluor 488 azide (0.1 µM). Flow cytometry was performed
726 using the FITC and Cy™5.5 channels to detect the Alexa Fluor 488 and PI, respectively.
729 Cam 3.II_Rev (25) trophozoite-infected RBCs (25-30 h p.i.) were incubated with inhibitor for 3 h at 10%
730 hematocrit and 5% parasitemia. The RBC pellet was washed 3 x in PBS + cOmplete. Cells were centrifuged
731 at 380 x g for 5 min and the pelleted cells lysed by resuspension in PBS + 0.05% saponin for 5 min on ice.

P. falciparum (3D7) = P. falciparum (3D7) culture growth inhibition, 72 h; assay type: cell-based, Plasmodium falciparum; details: Plasmodium falciparum, read-out: Pf3D7 IC50(72h); P. falciparum 3D7, 72 h
Protocol: (1 picture or pasted object on this page, not shown here)
553 Sigma-Aldrich) for 48-72 h. For drug pulse assays, tightly synchronized parasites (1-1.5% parasitemia,
554 0.2% final hematocrit) were added to the plates and incubated for 3 h. Drugs were removed and the
555 parasitemia assessed in the trophozoite stage of the next cycle.
557 Compounds were tested against a range of drug resistant field isolates and laboratory strains using a
558 modified [3H]-hypoxanthine incorporation assay, as previously reported (46). Field isolates 7G8, Cam3.1,
559 Dd2, K1, TM90C2B and NF54 were obtained from MR4 (www.beiresources.org).
561 Mammalian cell culture experiments
562 The HepG2 (Human hepatocyte carcinoma) cell line was procured from ATCC (American Type
563 Culture Collection, Manassas, USA; HB-8065) and viability assessed using Cell Titer-GLO luminescent
564 cell viability assay reagents (Promega, catalogue number: G7570) (47, 48). For the assay, 2000 cells/well
565 were plated in 384-well plates 24 h prior to the experiment and incubated at 37°C in a CO2 incubator. The
566 medium was removed and cells were treated with fresh medium containing either vehicle (0.5% DMSO)
567 or serially diluted test compounds or doxorubicin (1.3 nM to 25 µM) in a final volume of 50 µl/well and
568 further incubated for 72 h at 37°C in a CO2 incubator.
569 were treated with 5 µl of 1% Triton X-100 (final assay conc. 0.1%). Following incubation, 25 µl of medium
570 was discarded and 25 µl of Cell Titer-GLO reagent was added to each well and the plate was kept on a plate
571 shaker for 15 min at 25°C with shaking at 300 rpm. Luminescence signals were measured in a Spectramax
572 M5 reader (Molecular Devices).
574 H1650 is a human lung cancer derived ATG7-null cell line (49) that can be used to assess effects on targets
576 adenocarcinoma; bronchoalveolar carcinoma). Other cells lines used are: H460 (NCI-H460; human lung;
577 carcinoma; large cell lung cancer; ATCC: HTB-177); and HCT116 (human colon; colorectal carcinoma;
578 ATCC: CCL-247; Lot : 5056139). Each of the cell lines was received from the American Type Culture
579 Collection (ATCC) and passaged twice before freezing. Cells were cultured in the presence or absence of
580 inhibitors and cell viability was assessed by comparing the ATP content in compound-treated wells with
581 that in DMSO-treated wells as previously described (11).
583 HeLa cells (human cervical adenocarcinoma; genome sequenced (Garvin Institute, Australia) and verified

Compound	IC50 (PfYRS knockdown line; high aTc (500 nM)) [nM]	IC50 (PfYRS knockdown line; low aTc (1 nM)) [nM]	IC50 (PfYRS knockdown line; no aTc) [nM]	Fold change in IC50 (high aTc/ no aTc), PfYRS knockdown line (control compounds) (PfYRS knockdown line)	IC50 (P. falciparum (3D7)) [nM]
C[C@@H]1C[C@H](C)C[C@H](C)[C@@H](O)CC(=O)O[C@H]([C@@H]2CCC[C@H]2C(=O)O)C/C=C/C=C(/C#N)[C@H](O)[C@@H](C)C1 [borrelidin]	0.07	0.07 ± 0.01	0.07 ± 0.01	no change	
C[C@H]1[C@@H](O)O[C@@H]2O[C@@]3(C)CC[C@H]4[C@H](C)CC[C@@H]1[C@@]24OO3 [DHA, Dihydroartemisinin]	1.1 ± 0.3	1.6 ± 0.5	1.2 ± 0.4	no change	2.9 ± 0.2
